These results are taken from patent publication US20200291444A1, “Macrocyclisation Tags” (Oxford University Innovation LTD, priority 2017, published 2020).

Assay [1] deals with PCY1:S562A. In words: ITC equilibrium binding to PCY1:S562A. Set-up: species or system Saponaria vaccaria. The method, then: All PCY1 samples were buffer-exchanged or solubilized into buffer F and further diluted in the same batch of buffer F, in order to minimize buffer mismatches. ITC binding experiments were performed using a cell solution containing PCY1:S562A and a titrant solution with each peptide used. […] The measurements were performed at a stir speed of 750 rpm at 25° C. using a reference power of 10 μcal/s, except for A1-NH2 (5 μcal/s). A buffer titration control in which peptide was titrated into buffer was performed for each experiment. Data processing, fitting to a non-linear one-site binding model, and data plotting was performed using MicroCal PEAQ ITC analysis software (Malvern). […] The measurement was performed in buffer at 30° C., at 750 rpm using a reference power of 5 μcal/s.
PCY1:S562A, sequence (as listed by the source, stated change not applied): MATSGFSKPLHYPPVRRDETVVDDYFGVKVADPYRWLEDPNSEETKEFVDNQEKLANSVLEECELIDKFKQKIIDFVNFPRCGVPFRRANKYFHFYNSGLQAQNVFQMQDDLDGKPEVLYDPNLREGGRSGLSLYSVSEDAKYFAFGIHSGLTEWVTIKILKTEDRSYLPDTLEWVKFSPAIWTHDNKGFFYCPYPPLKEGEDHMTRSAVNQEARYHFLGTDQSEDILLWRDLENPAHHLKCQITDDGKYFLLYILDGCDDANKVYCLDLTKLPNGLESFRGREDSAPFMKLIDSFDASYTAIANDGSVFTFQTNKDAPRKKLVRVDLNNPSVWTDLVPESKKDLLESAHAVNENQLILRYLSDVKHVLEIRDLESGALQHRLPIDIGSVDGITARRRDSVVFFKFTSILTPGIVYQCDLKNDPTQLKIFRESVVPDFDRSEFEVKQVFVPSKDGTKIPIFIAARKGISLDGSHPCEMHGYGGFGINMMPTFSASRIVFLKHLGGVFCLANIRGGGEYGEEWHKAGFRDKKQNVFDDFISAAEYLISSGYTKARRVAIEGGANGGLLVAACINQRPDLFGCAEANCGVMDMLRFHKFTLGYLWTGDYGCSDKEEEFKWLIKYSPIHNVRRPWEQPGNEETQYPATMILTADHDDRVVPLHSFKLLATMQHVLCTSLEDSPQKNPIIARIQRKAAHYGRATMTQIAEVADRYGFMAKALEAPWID

Assay [2] has as its system PCY1. Briefly: LC/MS steady-state kinetics of macrocyclisation by PCY1. The assay is classed as biochemical, Saponaria vaccaria. The conditions noted are these: LC/MS (ion counts), 30° C.; read-out: Km (table head prints Kin). The method, then: All kinetic measurements (activity tests, progress curves and initial-rate experiments) were performed as discontinuous assays analyzing samples via LC/MS or MALDI (10-mer activity test). Reactions were performed in 20 mM Tris pH 8.5, 100 mM NaCl, 5 mM DTT (for progress curves 0.2 mg mL-1 BSA was included).17 Reactions were performed at 30° C. and at various time points 50 μL samples were quenched with 20 μL of 6% (v/v) TFA. Samples (50 μL) were loaded onto a ZORBAX SBC18, 5 μm, 9.4 mm×50 mm (Agilent) column connected to an Agilent LC-MS instrument (G6130B Single Quad, Agilent Technologies). Reactants were separated from products using a gradient from A (H2O with 0.1% formic acid) to 80% B (acetonitrile), at a rate of 1.5 mL/min for 8.75 min. For data analysis, ion count peaks and UV absorbance peaks were integrated using Agilent ChemStation software. For data analysis involving quantitative mass spec integration, calibration curves with macrocyclic peptide product were performed in triplicate in order to linearly correlate ion counts to cyclic product concentration. Data fitting and plotting was performed with Prism 6.
PCY1 extracted from S. vaccaria seeds has been previously described to have a turnover number of ˜1 h^−1 for PresegA1.^17 The enzyme produced heterologously in E. coli was evaluated by LC/MS-based time course experiments macrocyclizing 200 μM of PresegA1, PresegB1 or PresegF1 with 3.6 μM PCY1. These substrates were chosen as they produce 6, 5 and 9 residue macrocycles, respectively, show variability in the length of the C-terminal tail sequence, and have a different C-terminal core residue (proline in PresegF1, alanine in the other two) (FIG. 1b). PresegB1 was completely macrocyclized in ˜30 min, PresegA1 in ˜50 min and PresegF1 in >3 h (FIG. 2a). We chose to investigate the slowest and fastest substrate by steady-state kinetics using an LC/MS assay and UV280 nm quantification. […] Under the ITC conditions, the measured kcat (0.14±0.01 s^−1) was a factor of three lower than the LC/MS derived values. […] Therefore, we resorted to an LC/MS assay followed by quantification using mass ion counts, relying on a calibration curve employing the macrocyclic peptide product as a standard (FIG. 2b).

The target of assay [3] is T1, GmPOPB_S577A (Galerina marginata, UniProt H2E7Q8, S577A).
T1 construct: His-tag (TEV-cleavable) (cleaved yes); made in house; host or cells: E. coli BL21(DE3)
T1 sequence (H2E7Q8 1-730 S577A): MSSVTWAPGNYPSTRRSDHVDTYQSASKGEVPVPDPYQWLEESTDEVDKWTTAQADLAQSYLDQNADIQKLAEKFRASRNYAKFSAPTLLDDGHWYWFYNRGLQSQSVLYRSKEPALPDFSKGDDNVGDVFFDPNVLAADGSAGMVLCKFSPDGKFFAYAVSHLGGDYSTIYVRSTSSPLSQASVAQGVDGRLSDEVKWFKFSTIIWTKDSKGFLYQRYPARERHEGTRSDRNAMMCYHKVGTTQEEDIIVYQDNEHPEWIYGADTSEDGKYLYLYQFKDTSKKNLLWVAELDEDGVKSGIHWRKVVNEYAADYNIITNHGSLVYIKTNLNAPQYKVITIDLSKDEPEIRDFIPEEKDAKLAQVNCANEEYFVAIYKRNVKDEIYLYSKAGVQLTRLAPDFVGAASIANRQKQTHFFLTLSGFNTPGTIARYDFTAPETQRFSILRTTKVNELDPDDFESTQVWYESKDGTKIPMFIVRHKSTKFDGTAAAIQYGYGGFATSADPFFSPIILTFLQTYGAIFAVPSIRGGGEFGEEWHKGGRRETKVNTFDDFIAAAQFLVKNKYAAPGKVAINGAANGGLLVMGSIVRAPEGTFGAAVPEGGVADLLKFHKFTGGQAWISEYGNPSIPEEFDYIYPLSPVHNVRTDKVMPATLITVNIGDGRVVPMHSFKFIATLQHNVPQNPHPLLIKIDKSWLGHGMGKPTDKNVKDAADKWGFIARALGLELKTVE
In words: ITC binding to inactive mutant GmPOPB_S577A. The following applies: for binding (in words): concentrations up to 1 mM; for difference in binding affinity (fold): 13mer versus 35mer, 12 versus 17 amino acid recognition sequence.
Description: GmPOPB peptide ligand solutions were prepared in 20 mM Tris pH 8.0 containing 1 mM DTT, prior to buffer exchange by three cycles of dilution in 50 mM Tris pH 8.0 with 50 mM NaCl, 10 mM DTT followed by concentration using a Microsep Advance centrifugal device equipped with a 1 kDa cut off membrane (Pall Corporation). The same three cycles of dilution in 50 mM Tris pH 8.0 with 50 mM NaCl and 10 mM DTT followed by concentration were performed with the protein to be used in the titration using a Vivaspin protein concentrator spin column with a 30 kDa cut off (GE Healthcare). A final dilution to the concentration to be used for titration was performed using the buffer that passed through during the protein buffer exchange, both for the protein and peptide to be used to avoid any possible buffer mismatch. […] Titrations of peptide into protein solutions were conducted at 20° C. For all the titration experiments, a total of 19 injections of 2 μL were made at 120 s intervals. The heat released due to the first injection (0.4 μL) was excluded from data analyses. […] Equilibrium dissociation constants (Kd) as well as ΔH and ΔS values for binding of each peptide to protein were obtained by fitting the calorimetric data with a single-site model using the stoichiometry parameter n fixed at 1.0 using Malvern PEAQ-ITC data analysis software.
We performed all ITC binding experiments at least in duplicate, and calculations of average and standard error of the mean were performed with GraphPad Prism.

Assay [4] deals with PCY1. In words: PCY1 macrocyclisation of truncated presegetalin F1 substrates with catalytic peptide. The assay is classed as biochemical, Saponaria vaccaria. The following applies: for effect of catalytic peptide on rate of PreF1coreT macrocyclisation: substrate PreF1coreT (FSASYSSKPIQT), 500 μM catalytic peptide. The method, then:
Initial rate measurements at different substrate concentrations were performed in order to derive steady state kinetics. All reactions were performed with 0.25 μM PCY1 and 25, 50, 100, 200, 400 or 800 μM substrate ([…] or […]). Reactions containing catalytic peptide RNASAPV or DNASAPV were supplemented with 500 μM of each peptide, respectively. Reactions were performed in 20 mM TRIS pH 8.5, 100 mM NaCl, 5 mM DTT at 30° C. Time points were taken at 5, 15, 30, 45 and 60 min. Samples (50 μL) at each time point were quenched with 20 μL of 6% (v/v) TFA and then spun down for 30 min at 3,080×g. Samples were analysed via LC/MS (ZORBAX SBC18, 5 μm, 9.4 mm×50 mm (Agilent) column connected to an Agilent LC-MS instrument (G6130B Single Quad, Agilent Technologies)) using 0.1% (v/v) formic acid and a gradient of acetonitrile (5%-95%). Extracted ion count peaks for corresponding product (A[[…]]) masses ([M]: 954.44, [M]+H^+: 955.44 and [M]+Na^+: 977.44) were integrated and converted in corresponding product concentration using an ion count v. [product] calibration curve. Product concentration time courses were analysed with linear regression and slopes were plotted as a function of substrate concentrations (Michaelis Menten plot), deriving steady state kinetic parameters shown in FIGS. 7 to 9.

The target of assay [5] is T2, GmPOPB (Galerina marginata, UniProt H2E7Q8).
T2 construct: His-tag (TEV-cleavable) (cleaved yes); host or cells: E. coli BL21(DE3)
Briefly: GmPOPB kinetic assays (LC-MS). In kind it is biochemical. The conditions noted are these: room temperature. The method, then:
Comparison between distinct GmPOPB substrates was performed in 50 mM Tris pH 8.0, 50 mM NaCl, 10 mM DTT with varying concentrations of substrates at room temperature. All reactions were performed in duplicates. Reactions were started by adding GmPOPB (50 nM for GmAMA1_C6S, 1 μM for the 13mer and 14mer, and 20 nM for other substrates) to the assay mixture containing buffer and peptide. Reactions were quenched at several time points by adding 50 μL reaction mixture to 20 μL 6% TFA. Reactants were separated from products for quantification by injecting 50 μL of each quenched time point mix onto a ZORBAX SB-C18, 5 μm, 9.4×50 mm (Agilent) column connected to an Agilent LC-MS (G6130B Single Quad, Agilent Technologies). Reactants were separated from products using a gradient from H2O containing 0.1% TFA or 0.1% formic acid and 5% acetonitrile to 50% acetonitrile, at 1.5 ml/min for 8 min. Peaks with ultra violet (UV) absorbance at 220 and 280 nm were integrated, the area of peaks corresponding to reactant and products was used to calculate the percentage of product formed after a correction for differences in the extinction coefficient of each peptide was applied (ε280-25mer=11,000M-1 cm-1, ε220-25mer=46,000M-1 cm-1, ε280-cyclic=5500M-1 cm-1, ε220-cyclic=34,000M-1 cm-1, and ε280-tail=5500M-1 cm-1). The sum of product+substrate was assumed equal to the total initial amount of substrate, product converted from % to concentration. This value was divided by concentration of enzyme present to yield v/Et (min-1). When enzyme mutants and peptides containing alanine in the core region were tested for activity, higher concentrations 5 μM enzyme and 100 μM substrate were incubated for 1 and 18 h at room temperature. For progress curves with the 35mer substrate, measurements were triplicate and quantification relied on ion counts from mass spectrometry. […] Authentic macrocyclic peptide was quantified by UV absorbance. Data showing products formed after 1 and 16 h with truncated peptides were performed twice. […] Kinetic data were fitted to a Michaelis-Menten equation using GraphPad Prism, and values reported are average and standard error of the mean.

[6] abbreviates: ITC, 20° C., S577A mutant, read-out: Kd.

“And” between values parts separate entries of the source, which are not always exact repeats. Equal values may be shown once. “Also recorded” adds a separate entry of the source. Read-outs that look alike come from different tables or passages of the source. No end group written: not given here.

PCY1, sequence (as listed by the source): as the sequence (as listed by the source, stated change not applied) above, with A562S counted along it

On to FSASYSSKPIQT [PresegF1-truncated], for which, in assay [1] (poor peptide solubility at high concentrations), the “Kd (in words)” value is given as “too high to be accurately measured”. In addition, the Km in assay [2] was 227 µM.

For `CC[C@H](C)[C@H](NC(=O)CNC(=O)[C@H](Cc1c[nH]c2ccccc12)NC(=O)[C@@H](NC(=O)[C@@H]1CCCN1C(=O)[C@H](CC(C)C)NC(=O)[C@H](CCCNC(=N)N)NC(=O)[C@@H](NC(=O)[C@H](C)NC(=O)[C@H](CC(N)=O)NC(=O)[C@@H](NC(=O)[C@H](CC(=O)O)NC(=O)[C@H](Cc1ccccc1)NC(=O)[C@@H](N)CCSC)[C@@H](C)O)[C@@H](C)O)[C@@H](C)CC)C(=O)NCC(=O)N[C@@H](CS)C(=O)N[C@@H](CC(N)=O)C(=O)N1CCC[C@H]1C(=O)N[C@@H](Cc1c[nH]c2ccccc12)C(=O)N[C@H](C(=O)N[C@@H](C)C(=O)N[C@@H](CCC(=O)O)C(=O)N[C@@H](Cc1c[nH]cn1)C(=O)N[C@H](C(=O)N[C@@H](CC(=O)O)C(=O)N[C@@H](CCC(N)=O)C(=O)N[C@H](C(=O)N[C@@H](CC(C)C)C(=O)N[C@@H](C)C(=O)N[C@@H](CO)C(=O)NCC(=O)N[C@@H](CC(N)=O)C(=O)N[C@@H](CC(=O)O)C(=O)N[C@H](C(=O)N[C@@H](CS)C(=O)O)[C@@H](C)CC)[C@@H](C)O)C(C)C)[C@@H](C)O` [35mer, reference compound], the Kd in assay [3] (setting [6]) was 0.12 ± 0.03 µM.

Regarding RASAPV, the “effect of catalytic peptide on rate of PreF1coreT macrocyclisation” value (“effect … of PreF1coreT macrocyclisation” below) in assay [4] is “increase in the rate”.

RAANSAPV [catalytic peptide for PCY1]: the “effect … of PreF1coreT macrocyclisation” value in assay [4] is “increase in the rate”.

For the compound RGNASAPV [catalytic peptide for PCY1], in assay [4], the “effect … of PreF1coreT macrocyclisation” value is recorded as “increase in the rate”.

In the case of H-IWGIGCNPWTAE [12mer], the Kd in assay [3] (setting [6]) is 21 ± 5 µM.

In the case of TLASGNDIC [9mer-recogSeq], in assay [3], the dissociation constant Kd amounted to 121 ± 19 µM.

Regarding MFDTNATRLP [reference compound], the “binding (in words)” value was “no detectable binding” in assay [3] (ITC); “does not bind” in assay [3] (ITC, listed as 10-residue leader); “does not bind” in assay [3] (ITC, listed as leader).

On to VDQTLASGNDIC [12mer-recogSeq], for which, in assay [3], the Kd amounted to 5 ± 1 µM and the “difference in binding affinity (fold)” value amounted to 20 fold.

As to H-IWGIGCNPWT [10mer], the Kd in assay [3] (setting [6]) stood at 83 ± 17 µM.

Take RNASAPV [catalytic peptide for PCY1]: in assay [4], the “effect … of PreF1coreT macrocyclisation” value was “increases the rate; also recorded: increase in the rate”.

Take H-IWGIGCNPWTAEH [13mer]: in assay [5], the Michaelis-Menten constant (Km) was determined as 25 µM and the kcat worked out at 0.00817 s⁻¹. In addition, the “difference in binding affinity (fold)” value in assay [3] is ~20 fold and 10 fold. The Kd in assay [3] (setting [6]) was found to be 2.4 ± 0.1 µM.

H-IWGIGCNPWTA [11mer]: the dissociation constant (Kd) in assay [3] (setting [6]) worked out at 39 ± 18 µM.

For “PresegD1: native linear PCY1 substrate presegetalin D1 (GLSFAFPAKDAENASSPV)”, the Kd in assay [1] (ITC, 25° C.) is roughly 0.2 µM.

Turning to H-IWGIGCNPWTAEHV [14mer], in assay [5], the Km is 380 µM and the kcat is 0.00967 s⁻¹. Moreover, the Kd in assay [3] (setting [6]) was found to be 9.5 ± 1.1 µM.

Take RANASAPV [catalytic peptide for PCY1]: the “effect … of PreF1coreT macrocyclisation” value in assay [4] was “increase in the rate”.

As for RGGNASAPV [catalytic peptide for PCY1], the “effect … of PreF1coreT macrocyclisation” value in assay [4] is recorded as “increase in the rate”.

Take RGANASAPV [catalytic peptide for PCY1]: the “effect … of PreF1coreT macrocyclisation” value in assay [4] is “increase in the rate”.

For DNASAPV [catalytic peptide for PCY1], the “effect of catalytic peptide on rate of PreF1coreD macrocyclisation” value in assay [4] (substrate PreF1coreD (FSASYSSKPIQD), mismatched catalytic peptide) is recorded as “reduces the rate”.
